Values quoted from earlier work as cited in PMC8347148, “An Evaluation of Human Induced Pluripotent Stem Cells to Test for Cardiac Developmental Toxicity” (International Journal of Molecular Sciences, 2021).

Conditions: can be as high as; cited from earlier work

For `CN1CCC[C@H]1c1cccnc1` [nicotine], the “nicotine concentration in fetal serum” value is listed as ≤ 15.4 µM.
